Data from patent publication US6124269A, “2-Halo-6-O-substituted ketolide derivatives” (priority 1998, dated 2000).
Values after ≈ are worked out from the molar mass of the structure shown.

Experiments:
Type in all cases: cell-based
Escherichia coli SS = assay: In vitro agar dilution MIC, organism code RR; settings: Table 1B, in µg/mL (unit assumed)
Procedure: (§1) Representative compounds of the present invention were assayed in vitro for antibacterial activity as follows: Twelve petri dishes containing successive aqueous dilutions of the test compound mixed with 10 mL of sterilized Brain Heart Infusion (BHI) agar (Difco 0418-01-5) were prepared. Each plate was inoculated with 1:100 (or 1:10 for slow-growing strains, such as Micrococcus and Streptococcus) dilutions of up to 32 different microorganisms, using a Steers replicator block. The inoculated plates were incubated at 35-37° C. for 20 to 24 hours. In addition, a control plate, using BHI agar containing no test compound, was prepared and incubated at the beginning and end of each test.
(§2) An additional plate containing a compound having known susceptibility patterns for the organisms being tested and belonging to the same antibiotic class as the test compound was also prepared and incubated as a further control, as well as to provide test-to-test comparability.
(§3) After incubation, each plate was visually inspected. The minimum inhibitory concentration (MIC) was defined as the lowest concentration of drug yielding no growth, a slight haze, or sparsely isolated colonies on the inoculum spot as compared to the growth control.

[1] = test system: Streptococcus pyogenes PIU 2548; assay: In vitro agar dilution MIC, organism code NN; settings: Table 1B, unit assumed
Procedure: as §1, §2, §3

[2] = test system: Streptococcus pyogenes EES61; assay: In vitro agar dilution MIC, organism code LL; settings: Table 1B, unit assumed
Procedure: as §1, §2, §3

[3] = test system: Haemophilis influenzae DILL AMP R; assay: In vitro agar dilution MIC, organism code WW; settings: Table 1B, unit assumed
Procedure: as §1, §2, §3

Escherichia coli DC-2 = assay: In vitro agar dilution MIC, organism code SS; settings: Table 1B, unit assumed
Procedure: as §1, §2, §3

[4] = test system: Staphylococcus epidermidis 3519; assay: In vitro agar dilution MIC, organism code HH; settings: Table 1B, in µg/mL (unit assumed)
Procedure: as §1, §2, §3

Candida albicans CCH 442 = assay: In vitro agar dilution MIC, organism code TT; settings: Table 1B, unit assumed
Procedure: as §1, §2, §3

[5] = test system: Streptococcus pneumoniae ATCC 6303; assay: In vitro agar dilution MIC, organism code XX; settings: Table 1B, unit assumed
Procedure: as §1, §2, §3

[6] = test system: Staphylococcus aureus A5177; assay: In vitro agar dilution MIC, organism code BB; settings: Table 1B, in µg/mL (unit assumed)
Procedure: as §1, §2, §3

[7] = test system: Nocardia asteroides ATCC 9970; assay: In vitro agar dilution MIC, organism code VV; settings: Table 1B, in µg/mL (unit assumed)
Procedure: as §1
as §2, with “comparability. Erythromycin A was used for this purpose.” for “comparability.”
as §3

[8] = test system: Staphylococcus aureus ATCC 6538P; assay: In vitro agar dilution MIC, organism code AA; settings: Table 1B, unit assumed
Procedure: as §1, §2, §3

[9] = test system: Staphylococcus aureus NCTC10649M; assay: In vitro agar dilution MIC, organism code EE; settings: Table 1B, unit assumed
Procedure: as §1, §2, §3

[10] = test system: Staphylococcus aureus 1775; assay: In vitro agar dilution MIC, organism code GG; settings: Table 1B, unit assumed
Procedure: as §1, §2, §3

[11] = test system: Streptococcus agalactiae CMX 508; assay: In vitro agar dilution MIC, organism code KK; settings: Table 1B, unit assumed
Procedure: as §1, §2, §3

[12] = test system: Streptococcus pyogenes 930; assay: In vitro agar dilution MIC, organism code MM; settings: Table 1B, unit assumed
Procedure: as §1, §2, §3

[13] = test system: Streptococcus pneumoniae 5649; assay: In vitro agar dilution MIC, organism code ZZA; settings: Table 1B, unit assumed
Procedure: as §1, §2, §3

[14] = test system: Staphylococcus aureus A-5278; assay: In vitro agar dilution MIC, organism code CC; settings: Table 1B, unit assumed
Procedure: as §1, §2, §3

[15] = test system: Streptococcus bovis A-5169; assay: In vitro agar dilution MIC, organism code JJ; settings: Table 1B, unit assumed
Procedure: as §1, §2, §3

[16] = test system: Enterococcus faecium ATCC 8043; assay: In vitro agar dilution MIC, organism code II; settings: Table 1B, unit assumed
Procedure: as §1, §2, §3

[17] = test system: Mycobacterium smegmatis ATCC 114; assay: In vitro agar dilution MIC, organism code UU; settings: Table 1B, in µg/mL (unit assumed)
Procedure: as §1, §2, §3

[18] = test system: Micrococcus luteus ATCC 4698; assay: In vitro agar dilution MIC, organism code PP; settings: Table 1B, in µg/mL (unit assumed)
Procedure: as §1, §2, §3

[19] = test system: Staphylococcus aureus CMX 553; assay: In vitro agar dilution MIC, organism code FF; settings: Table 1B, unit assumed
Procedure: as §1, §2, §3

[20] = test system: Streptococcus pneumoniae 5979; assay: In vitro agar dilution MIC, organism code ZZ; settings: Table 1B, unit assumed
Procedure: as §1, §2, §3

[21] = test system: Micrococcus luteus ATCC 9341; assay: In vitro agar dilution MIC, organism code OO; settings: Table 1B, unit assumed
Procedure: as §1, §2, §3

Escherichia coli JUHL = assay: In vitro agar dilution MIC, organism code QQ; settings: Table 1B, in µg/mL (unit assumed)
Procedure: as §1, §2, §3

[22] = test system: Streptococcus pneumoniae GYR 1171; assay: In vitro agar dilution MIC, organism code YY; settings: Table 1B, unit assumed
Procedure: as §1, §2, §3

[23] = test system: Staphylococcus aureus CMX 642A; assay: In vitro agar dilution MIC, organism code DD; settings: Table 1B, unit assumed
Procedure: as §1, §2, §3

| SMILES | MIC (Escherichia coli SS) | MIC [1] [µg/mL] | MIC [2] [µg/mL] | MIC [3] [µg/mL] | MIC (Escherichia coli DC-2) [µg/mL] | MIC [4] | MIC (Candida albicans CCH 442) [µg/mL] | MIC [5] [µg/mL] | MIC [6] | MIC [7] | MIC [8] [µg/mL] | MIC [9] [µg/mL] | MIC [10] [µg/mL] | MIC [11] [µg/mL] | MIC [12] [µg/mL] | MIC [13] [µg/mL] | MIC [14] [µg/mL] | MIC [15] [µg/mL] | MIC [16] [µg/mL] | MIC [17] | further results |
| --- | --- | --- | --- | --- | --- | --- | --- | --- | --- | --- | --- | --- | --- | --- | --- | --- | --- | --- | --- | --- | --- |
| CC[C@H]1OC(=O)C(C)(F)C(=O)[C@H](C)[C@@H](O[C@@H]2O[C@H](C)C[C@H](N(C)C)[C@H]2O)[C@](C)(OCC#Cc2ccc(-c3cccs3)s2)C[C@@H](C)C(=O)[C@H](C)[C@H]2NC(=O)O[C@@]21C (stereo partly drawn) [Example 28] | 0.78 | 0.2 (≈ 0.244 µM) | 0.02 (≈ 0.0244 µM) | 2 (≈ 2.44 µM) | 100 (≈ 122 µM) | 0.1 | > 100 | ≤ 0.004 | 0.1 | 0.02 | 0.05 (≈ 0.061 µM) | 0.2 (≈ 0.244 µM) | > 100 | 0.02 (≈ 0.0244 µM) | 0.78 (≈ 0.952 µM) | 0.25 (≈ 0.305 µM) | > 100 | 0.01 (≈ 0.0122 µM) | 0.05 (≈ 0.061 µM) | 0.39 | MIC [18]: 0.05; MIC [19]: 0.1 µg/mL (≈ 0.122 µM); MIC [20]: 16 µg/mL (≈ 19.5 µM); MIC [21]: 0.02 µg/mL (≈ 0.0244 µM); MIC (Escherichia coli JUHL): 100; MIC [22]: ≤ 0.004 µg/mL; MIC [23]: 0.1 µg/mL (≈ 0.122 µM) |
| CC[C@H]1OC(=O)[C@@](C)(F)C(=O)[C@H](C)[C@@H](O[C@@H]2O[C@H](C)C[C@H](N(C)C)[C@H]2O)[C@](C)(OC/C=C/c2ccc3ncccc3c2)C[C@@H](C)C(=O)[C@H](C)[C@H]2NC(=O)O[C@@]21C [Example 10] | 0.1 | 0.1 (≈ 0.128 µM) | 0.02 (≈ 0.0255 µM) | 2 (≈ 2.55 µM) | 100 (≈ 128 µM) | 0.2 | > 100 | 0.015 (≈ 0.0191 µM) | 0.1 | 0.01 | 0.1 (≈ 0.128 µM) | 0.1 (≈ 0.128 µM) | > 100 | 0.05 (≈ 0.0638 µM) | 0.39 (≈ 0.497 µM) | 0.25 (≈ 0.319 µM) | > 100 | 0.01 (≈ 0.0128 µM) | 0.05 (≈ 0.0638 µM) | 0.1 | MIC [18]: 0.1; MIC [19]: 0.1 µg/mL (≈ 0.128 µM); MIC [20]: 0.25 µg/mL (≈ 0.319 µM); MIC [21]: 0.02 µg/mL (≈ 0.0255 µM); MIC (Escherichia coli JUHL): 100; MIC [22]: 0.015 µg/mL (≈ 0.0191 µM); MIC [23]: 0.1 µg/mL (≈ 0.128 µM) |
| CC[C@H]1OC(=O)C(C)(F)C(=O)[C@H](C)[C@@H](O[C@@H]2O[C@H](C)C[C@H](N(C)C)[C@H]2O)[C@](C)(OCC#CC(=O)c2cccs2)C[C@@H](C)C(=O)[C@H](C)[C@H]2NC(=O)O[C@@]21C (stereo partly drawn) [Example 24] | 3.1 | 3.1 (≈ 4.05 µM) | 0.39 (≈ 0.51 µM) | 16 (≈ 20.9 µM) | > 100 | 1.56 | > 100 | 0.06 (≈ 0.0784 µM) | 1.56 | 0.78 | 1.56 (≈ 2.04 µM) | 1.56 (≈ 2.04 µM) | > 100 | 0.39 (≈ 0.51 µM) | 100 (≈ 131 µM) | 1 (≈ 1.31 µM) | > 100 | 0.2 (≈ 0.261 µM) | 0.39 (≈ 0.51 µM) | 3.1 | MIC [18]: 0.78; MIC [19]: 1.56 µg/mL (≈ 2.04 µM); MIC [20]: > 64 µg/mL; MIC [21]: 0.2 µg/mL (≈ 0.261 µM); MIC (Escherichia coli JUHL): 100; MIC [22]: 0.03 µg/mL (≈ 0.0392 µM); MIC [23]: 1.56 µg/mL (≈ 2.04 µM) |
| CC[C@H]1OC(=O)[C@@](C)(F)C(=O)[C@H](C)[C@@H](O[C@@H]2O[C@H](C)C[C@H](N(C)C)[C@H]2O)[C@](C)(OC/C=C/c2cnc3ccc([N+](=O)[O-])cc3c2)C[C@@H](C)C(=O)[C@H](C)[C@H]2NC(=O)O[C@@]21C [Example 6] | 0.05 | 0.05 (≈ 0.0603 µM) | ≤ 0.005 | 2 (≈ 2.41 µM) | 25 (≈ 30.2 µM) | 0.05 | 100 (≈ 121 µM) | ≤ 0.004 | 0.05 | 0.02 | 0.05 (≈ 0.0603 µM) | 0.1 (≈ 0.121 µM) | 100 (≈ 121 µM) | 0.02 (≈ 0.0241 µM) | 0.39 (≈ 0.47 µM) | 0.125 (≈ 0.151 µM) | 100 (≈ 121 µM) | 0.01 (≈ 0.0121 µM) | 0.05 (≈ 0.0603 µM) | 0.1 | MIC [18]: 0.05; MIC [19]: 0.05 µg/mL (≈ 0.0603 µM); MIC [20]: 1 µg/mL (≈ 1.21 µM); MIC [21]: 0.01 µg/mL (≈ 0.0121 µM); MIC (Escherichia coli JUHL): 25; MIC [22]: ≤ 0.004 µg/mL; MIC [23]: 0.05 µg/mL (≈ 0.0603 µM) |
